Data published in article PMC11784026, “Phase 1 study of the safety, tolerability, and pharmacokinetics of a synthetic macrocyclic peptide antibiotic (BRII-693) in healthy adult participants” (Antimicrobial Agents and Chemotherapy, 2024).
Read-outs that look alike come from different tables or passages of the source. Where a SMILES comes first, the peptide text is derived from it. Bridges are numbered along the chain shown (N, C = ends). [ ]: non-standard residue; d: D form. The star is where a group is joined. X1 = O=C(c1ccc(Cl)cc1Cl)*; Dab = NCC[C@H](N)C(=O)O; Abu = CC[C@H](N)C(=O)O; Dap = NC[C@H](N)C(=O)O

Tests used:
[1] = Plasma pharmacokinetics after single ascending doses (SAD), phase 1; type: in vivo, human (healthy adult participants); conditions: for clearance / Vd / half-life / AUC(0-inf) / Cmax / AUC(0-t) / Tmax: human, plasma; for clearance: total clearance; for Vd: volume of distribution during terminal phase, read-out: VZ; for half-life: apparent terminal half-life; for AUC(0-t): read-out: AUC0–6h
Procedure: Participants were then discharged on day 3.
Plasma and urine PK parameters were summarized for each cohort using descriptive statistics. Analyses using linear models were performed to assess dose proportionality (both single-dose cohorts 1–7 and multiple-dose cohorts 8–10). Dose-linearity of Cmax and AUC across the dose range was assessed by fitting the power model with ln-transformed parameter as response variables and ln-transformed dose (continuous variable) as a fixed effect. For each PK parameter and study phase (SAD or MAD) separately, a pooled estimate (across all dose cohorts) of slope, corresponding 95% confidence interval (CI), and between-subject coefficient of variation (CV) were calculated. Dose proportionality was to be concluded if the 95% CI for the slope spans 1. […] Least square means (LSMs) and difference in LSMs with 90% CI were calculated; these values were then back exponentiated to give the geometric LSM, geometric mean ratio, and 90% CI.

[2] = Procedure: During the MAD phase of the study, repeat dosing of 100, 150, and 200 mg of BRII-693 was evaluated in sequential cohorts (cohorts 8–10) composed of eight participants each (six active; two placebo). Participants first received a single dose of BRII-693 or placebo as a 1-hour IV infusion on day 1; and then 48 hours later on day 3 through day 9, participants received BRII-693 or placebo every 6 hours (q6h) for 7 days, with the last dose in the morning on day 9. Participants were discharged on day 11. In the remaining two MAD cohorts (cohorts 11 and 12), repeat dosing of 150 mg of BRII-693 q6h for 14 days was evaluated in non-Chinese and Chinese (first and second generation) participants. Each cohort comprises 12 participants (10 active and 2 placebo). The last dose was in the morning on day 14, and participants were discharged on day 17.
For the 7-day MAD cohorts 8–10, blood samples were collected (i) on day 1 before dosing and at 0.5, 1, 1.25, 1.5, 2, 4, 6, 8, 12, 24, 36, and 48 hours following the start of dosing infusion; (ii) on day 3 prior to the morning dose and at 0.5, 1, 1.25, 1.5, 2, 4, and 6 hours after the start of the first dosing infusion; (iii) on day 9 before dosing and at 0.5, 1, 1.25, 1.5, 2, 4, 6, 8, 12, 24, 36, and 48 hours following the start of the last dosing infusion in the morning. Urine samples were collected before dosing and at the time intervals of 0–4, 4–8, 8–12, 12–24, 24–36, and 36–48 hours after the start of dosing infusion on days 1 and 9.
For the 14-day MAD cohorts 11 and 12, blood samples were collected (i) on day 1 prior to and at 0.5, 1, 1.25, 1.5, 2, 4, and 6 hours after the start of the first dosing infusion and (ii) on day 14 before dosing and at 0.5, 1, 1.25, 1.5, 2, 4, 6, 8, 12, 24, 36, 48, 60, and 72 hours following the start of the last dosing infusion in the morning. Urine samples were collected before dosing and at the time intervals of 0–4, 4–8, 8–12, 12–24, 24–36, 36–48, and 48–72 hours after the start of dosing infusion on Day 14.
All blood samples were collected into EDTA-containing vials, immediately placed on ice, and centrifuged at 3,000× g for approximately 10 minutes at 4°C. Supernatant plasma was transferred to two pre-chilled cryopreservation vials (at least 1.0 mL per vial) and stored at −80°C until shipped to the analytical laboratory. Urine samples collected for each time interval were refrigerated, aliquoted, and stored at −80°C until shipped to the analytical laboratory. Plasma and urine samples were analyzed for BRII-693 concentrations using validated high-performance liquid chromatography with detection by mass spectrometry method (BioAgilytix, San Diego, CA). The assay range was 50.0–50,000 ng/mL in both plasma and urine.
Area under the concentration-time curve (AUC) from time zero to the time of the last quantifiable concentration (AUC0–last), AUC from time zero to infinity (AUC0–inf), AUC within a dosing interval of 6 hours (AUC0–6h), maximum observed concentration (Cmax), time to reach maximum concentration (Tmax), apparent terminal half-life (t1/2), total clearance (CL), volume of distribution during terminal phase (Vz), and accumulation ratio based on AUC (ARAUC) were determined for BRII-693 in plasma. Urine parameters included amount and percentage of dose recovered in urine as unchanged drug over each collection interval and cumulatively and renal clearance (CLR). PK parameters were determined using noncompartmental methods in Phoenix WinNonlin (Certara, Version 8.3).

[3] = single 1-h IV infusion 10 mg, n = 6, arithmetic mean ± SD
[4] = single 1-h IV infusion 25 mg, n = 5, arithmetic mean ± SD
[5] = single 1-h IV infusion 50 mg, n = 6, arithmetic mean ± SD
[6] = single 1-h IV infusion 100 mg, n = 6, arithmetic mean ± SD
[7] = single 1-h IV infusion 200 mg, n = 6, arithmetic mean ± SD
[8] = single 1-h IV infusion 300 mg, n = 6, arithmetic mean ± SD
[9] = single 1-h IV infusion 400 mg, n = 6, arithmetic mean ± SD

CC[C@@H]1NC(=O)[C@@H](CC(C)C)NC(=O)[C@H](CCN)NC(=O)[C@@H](NC(=O)[C@H](CN)NC(=O)[C@@H](NC(=O)[C@H](CCN)NC(=O)c2ccc(Cl)cc2Cl)[C@@H](C)O)CCNC(=O)[C@H]([C@@H](C)O)NC(=O)[C@H](CCN)NC(=O)[C@H](CCN)NC1=O [BRII-693] (X1-[Dab]T[Dap][Dab][Dab][dL][Abu][Dab][Dab]T; lactam 4-C; N-terminus assumed)
clearance [1, 3]: 63.8 mL/min
Vd [1, 3]: 14.1 ± 1.54 L
clearance [1, 4]: 72.7 mL/min
Vd [1, 4]: 20.7 ± 7.61 L
clearance [1, 5]: 69.5 mL/min
Vd [1, 5]: 19.2 ± 3.34 L
clearance [1, 6]: 62.7 mL/min
Vd [1, 6]: 21.8 ± 3.17 L
clearance [1, 7]: 68.5 mL/min
Vd [1, 7]: 21.3 ± 3.27 L
clearance [1, 8]: 72.3 mL/min
Vd [1, 8]: 25.8 ± 2.73 L
clearance [1, 9]: 65.5 mL/min
Vd [1, 9]: 24.6 ± 2.47 L
half-life [1, 3]: 2.58 ± 0.46 h
AUC(0-inf) [1, 3]: 2640 ± 330 ng·h/mL
Cmax [1, 3]: 770 ± 120 ng/mL
AUC(0-t) [1, 3]: 2080 ± 190 ng·h/mL
Tmax ([1]; single 1-h IV infusion 10 mg, n = 6, median (range)): 1.12 h
half-life [1, 4]: 3.22 ± 0.77 h
AUC(0-inf) [1, 4]: 5940 ± 1180 ng·h/mL
Cmax [1, 4]: 1500 ± 380 ng/mL
AUC(0-t) [1, 4]: 4390 ± 1130 ng·h/mL
Tmax ([1]; single 1-h IV infusion 25 mg, n = 5, median (range)): 1.1 h
half-life [1, 5]: 3.2 ± 0.43 h
AUC(0-inf) [1, 5]: 12200 ± 1790 ng·h/mL
Cmax [1, 5]: 3230 ± 460 ng/mL
AUC(0-t) [1, 5]: 9160 ± 1170 ng·h/mL
Tmax ([1]; single 1-h IV infusion 50 mg, n = 6, median (range)): 1.07 h
half-life [1, 6]: 4.07 ± 0.61 h
AUC(0-inf) [1, 6]: 27300 ± 4580 ng·h/mL
Cmax [1, 6]: 6710 ± 970 ng/mL
AUC(0-t) [1, 6]: 19200 ± 2740 ng·h/mL
Tmax ([1]; single 1-h IV infusion 100 mg, n = 6, median (range)): 1.13 h
half-life [1, 7]: 3.83 ± 1.23 h
AUC(0-inf) [1, 7]: 51400 ± 13900 ng·h/mL
Cmax [1, 7]: 13200 ± 2190 ng/mL
AUC(0-t) [1, 7]: 36700 ± 6290 ng·h/mL
Tmax ([1]; single 1-h IV infusion 200 mg, n = 6, median (range)): 1.18 h
half-life [1, 8]: 4.12 ± 0.23 h
AUC(0-inf) [1, 8]: 69800 ± 7750 ng·h/mL
Cmax [1, 8]: 17300 ± 3050 ng/mL
AUC(0-t) [1, 8]: 48900 ± 6180 ng·h/mL
Tmax ([1]; single 1-h IV infusion 300 mg, n = 6, median (range)): 1.16 h
half-life [1, 9]: 4.37 ± 0.51 h
AUC(0-inf) [1, 9]: 103000 ± 11600 ng·h/mL
Cmax [1, 9]: 24300 ± 4710 ng/mL
AUC(0-t) [1, 9]: 71400 ± 7200 ng·h/mL
Tmax ([1]; single 1-h IV infusion 400 mg, n = 6, median (range)): 1.19 h
Mean total clearance ([1]; single doses 10–400 mg, appeared dose independent): approximately 4 L/h
CLR ([2]; Last q6h dose (day 9), 7-day MAD 100 mg q6h × 7, renal clearance, n = 6, arithmetic mean ± SD): 1.40 ± 0.60 L/h
fe0–48h ([2]; Last q6h dose (day 9), 7-day MAD 100 mg q6h × 7, urinary recovery over 48 h, n = 6, arithmetic mean ± SD): 66.5 ± 18.0%
CLR ([2]; Last q6h dose (day 9), 7-day MAD 150 mg q6h × 7, renal clearance, n = 5, arithmetic mean ± SD): 1.60 ± 0.60 L/h
fe0–48h ([2]; Last q6h dose (day 9), 7-day MAD 150 mg q6h × 7, urinary recovery over 48 h, n = 5, arithmetic mean ± SD): 57.2 ± 19.2%
CLR ([2]; Last q6h dose (day 9), 7-day MAD 200 mg q6h × 7, renal clearance, n = 5, arithmetic mean ± SD): 1.41 ± 0.23 L/h
fe0–48h ([2]; Last q6h dose (day 9), 7-day MAD 200 mg q6h × 7, urinary recovery over 48 h, n = 5, arithmetic mean ± SD): 74.3 ± 30.3%
CLR ([2]; Last q6h dose (day 14), 14-day MAD 150 mg q6h × 14, Chinese, renal clearance, n = 6, arithmetic mean ± SD): 1.67 ± 0.43 L/h
fe0–48h ([2]; Last q6h dose (day 14), 14-day MAD 150 mg q6h × 14, Chinese, urinary recovery over 48 h, n = 6, arithmetic mean ± SD): 70.9 ± 22.0%
CLR ([2]; Last q6h dose (day 14), 14-day MAD 150 mg q6h × 14, non-Chinese, renal clearance, n = 10, arithmetic mean ± SD): 1.91 ± 0.79 L/h
fe0–48h ([2]; Last q6h dose (day 14), 14-day MAD 150 mg q6h × 14, non-Chinese, urinary recovery over 48 h, n = 10, arithmetic mean ± SD): 74.1 ± 25.6%
Urinary recovery compared with polymyxin B ([2]; comparison with literature polymyxin B data (ref 11)): higher urinary recovery than polymyxin B
